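Compound exposure: 48 hours, 5 concentrations, 96-well plates. Abbreviation: GI50, concentration required for 50% inhibition of growth.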 Active and inactive are the calls of the source. Rule as the data show it: active = GI50 up to about 1.1 µM and inactive = higher.
What was measured:
Assay in all cases: NCI-60 cell line screen, 48 h
Malme-3M = system: Malme-3M
SK-MEL-5 = system: SK-MEL-5
HL-60 = system: HL-60
IGROV-1 = system: IGROV-1
HOP-92 = system: HOP-92
NCI-H460 = system: NCI-H460
SW-620 = system: SW-620
NCI-H23 = system: NCI-H23
SK-MEL-28 = system: SK-MEL-28
SNB-75 = system: SNB-75
ACHN = system: ACHN
LOX IMVI = system: LOX IMVI
HOP-62 = system: HOP-62
SK-MEL-2 = system: SK-MEL-2
SNB-19 = system: SNB-19
NCI-H522 = system: NCI-H522
HCT-116 = system: HCT-116
A498 = system: A498
786-0 = system: 786-0
CCRF-CEM = system: CCRF-CEM

Row | Structure (SMILES) | GI50 (Malme-3M) | GI50 (SK-MEL-5) | GI50 (HL-60) | GI50 (IGROV-1) | GI50 (HOP-92) | GI50 (NCI-H460) | GI50 (SW-620) | GI50 (NCI-H23) | GI50 (SK-MEL-28) | GI50 (SNB-75) | GI50 (ACHN) | GI50 (LOX IMVI) | GI50 (HOP-62) | GI50 (SK-MEL-2) | GI50 (SNB-19) | GI50 (NCI-H522) | GI50 (HCT-116) | GI50 (A498) | GI50 (786-0) | GI50 (CCRF-CEM)
1 | CCC/C(=N\NC(=O)c1cc2ccccc2cc1O)C(CC)C(=O)CCC(=O)N(Cc1ccccc1)Cc1ccccc1 (stereo not given) | 50.1 µM (inactive) | 23.4 µM (inactive) | 13 µM (inactive) | 34.5 µM (inactive) | 33.3 µM (inactive) | 35.6 µM (inactive) | 64 µM (inactive) | 76.2 µM (inactive) | > 100 µM (inactive) | 9.73 µM (inactive) | 33.5 µM (inactive) | 43 µM (inactive) | 81.1 µM (inactive) | 28.6 µM (inactive) | 27.7 µM (inactive) | 39.1 µM (inactive) | 41 µM (inactive) | 85.9 µM (inactive) | 25.7 µM (inactive) | 7.62 µM (inactive)
2 | c1ccc2cc(-c3cc(-c4cc(-c5ccc6ccccc6c5)on4)no3)ccc2c1 | > 100 µM (inactive) | > 100 µM (inactive) | > 100 µM (inactive) | > 100 µM (inactive) | > 100 µM (inactive) | > 100 µM (inactive) | > 100 µM (inactive) | > 100 µM (inactive) | > 100 µM (inactive) | 64.7 µM (inactive) | > 100 µM (inactive) | > 100 µM (inactive) | > 100 µM (inactive) | > 100 µM (inactive) | 15 µM (inactive) | > 100 µM (inactive) | > 100 µM (inactive) | > 100 µM (inactive) | > 100 µM (inactive) | 13.6 µM (inactive)
3 | O=C(/C=C/NC(=O)OCc1ccccc1)OCc1ccccc1 | > 100 µM (inactive) | > 100 µM (inactive) | > 100 µM (inactive) | > 100 µM (inactive) | 41.6 µM (inactive) | > 100 µM (inactive) | > 100 µM (inactive) | > 100 µM (inactive) | > 100 µM (inactive) | 32.7 µM (inactive) | > 100 µM (inactive) | > 100 µM (inactive) | > 100 µM (inactive) | > 100 µM (inactive) | > 100 µM (inactive) | > 100 µM (inactive) | > 100 µM (inactive) | > 100 µM (inactive) | > 100 µM (inactive) | > 100 µM (inactive)
4 | CN(C)CC1(C)CC/C(=C\c2ccc(Cl)cc2)C1=O (stereo not given) | > 100 µM (inactive) | 39 µM (inactive) | 19.7 µM (inactive) | 74 µM (inactive) | 59 µM (inactive) | 24.4 µM (inactive) | 16.5 µM (inactive) | 57.4 µM (inactive) | > 100 µM (inactive) | 45 µM (inactive) | 44.9 µM (inactive) | 31.3 µM (inactive) | > 100 µM (inactive) | > 100 µM (inactive) | 20.3 µM (inactive) | 17.7 µM (inactive) | 34.3 µM (inactive) | 49.1 µM (inactive) | 59.2 µM (inactive) | 25.8 µM (inactive)
5 | CCCC/C(C)=N/NC(N)=S | > 100 µM (inactive) | > 100 µM (inactive) | 14.5 µM (inactive) | > 100 µM (inactive) | > 100 µM (inactive) | > 100 µM (inactive) | > 100 µM (inactive) | > 100 µM (inactive) | > 100 µM (inactive) | > 100 µM (inactive) | > 100 µM (inactive) | > 100 µM (inactive) | > 100 µM (inactive) | > 100 µM (inactive) | > 100 µM (inactive) | > 100 µM (inactive) | > 100 µM (inactive) | > 100 µM (inactive) | > 100 µM (inactive) | > 100 µM (inactive)
6 | Oc1cc(-n2cccn2)c(O)cc1-n1cccn1 | 30.7 µM (inactive) | 32.6 µM (inactive) | 6.43 µM (inactive) | 54.6 µM (inactive) | 21 µM (inactive) | > 100 µM (inactive) | 19.1 µM (inactive) | 43.7 µM (inactive) | 40.8 µM (inactive) | > 69.2 µM (inactive) | 22.4 µM (inactive) | 21 µM (inactive) | > 63.1 µM (inactive) | > 88.5 µM (inactive) | > 70.1 µM (inactive) | 11.5 µM (inactive) | 26.2 µM (inactive) | > 72.8 µM (inactive) | 16.6 µM (inactive) | 7.11 µM (inactive)
7 | Cc1nccn1S(=O)(=O)c1ccc(Cl)cc1 | 34.8 µM (inactive) | 37.4 µM (inactive) | 22.9 µM (inactive) | 37.4 µM (inactive) | 16.9 µM (inactive) | 41.9 µM (inactive) | 65.2 µM (inactive) | 39.6 µM (inactive) | 94 µM (inactive) | 57 µM (inactive) | 95.9 µM (inactive) | 41.5 µM (inactive) | 58.2 µM (inactive) | 72.9 µM (inactive) | > 100 µM (inactive) | 27.9 µM (inactive) | 30.5 µM (inactive) | 36.1 µM (inactive) | > 100 µM (inactive) | 41 µM (inactive)
8 | COc1cc2nc(-c3cccs3)[nH]c(=O)c2cc1OC | > 100 µM (inactive) | > 100 µM (inactive) | 35.4 µM (inactive) | 19.9 µM (inactive) | > 100 µM (inactive) | > 100 µM (inactive) | > 100 µM (inactive) | > 100 µM (inactive) | > 100 µM (inactive) | > 100 µM (inactive) | > 100 µM (inactive) | > 100 µM (inactive) | > 100 µM (inactive) | > 100 µM (inactive) | > 100 µM (inactive) | > 100 µM (inactive) | 70.6 µM (inactive) | > 100 µM (inactive) | > 100 µM (inactive) | 36.6 µM (inactive)
9 | CCOc1cc2c(cc1O)/C(=N\N)C[C@@H]1[C@@H]2CC[C@]2(C)[C@@H](O)CC[C@@H]12 | 1.54 µM (inactive) | 1.28 µM (inactive) | 0.337 µM (active) | 6.97 µM (inactive) | 13.2 µM (inactive) | 2.99 µM (inactive) | 1.85 µM (inactive) | 7.01 µM (inactive) | 5.66 µM (inactive) | 3.1 µM (inactive) | 5.61 µM (inactive) | 4.12 µM (inactive) | 3.66 µM (inactive) | 4.38 µM (inactive) | 3.87 µM (inactive) | 2.8 µM (inactive) | 2.34 µM (inactive) | 12.4 µM (inactive) | 4.48 µM (inactive) | 2.38 µM (inactive)
10 | CSC(=S)N/N=C(\C)c1cccc(C)n1 | 0.809 µM (active) | 0.558 µM (active) | 0.0764 µM (active) | 1.61 µM (inactive) | 1.1 µM (active) | 0.456 µM (active) | 0.208 µM (active) | 0.975 µM (active) | 1.46 µM (inactive) | 1.86 µM (inactive) | 0.265 µM (active) | 1.13 µM (inactive) | 0.953 µM (active) | 3.48 µM (inactive) | 4.04 µM (inactive) | 0.0815 µM (active) | 0.183 µM (active) | 2.21 µM (inactive) | 0.361 µM (active) | 0.0124 µM (active)
11 | COc1cc2ccc1-c1cc(ccc1O)CC1c3cc4c(cc3CCN1C)Oc1c(OC)cc3c(c1O4)C(C2)N(C)CC3 (stereo not given) | 1.89 µM (inactive) | 2.08 µM (inactive) | 2.16 µM (inactive) | 2.17 µM (inactive) | 13.4 µM (inactive) | 1.75 µM (inactive) | 1.84 µM (inactive) | 1.99 µM (inactive) | 1.52 µM (inactive) | 1.8 µM (inactive) | 2 µM (inactive) | 1.99 µM (inactive) | 1.93 µM (inactive) | 1.79 µM (inactive) | 1.98 µM (inactive) | 1.75 µM (inactive) | 1.46 µM (inactive) | 2.19 µM (inactive) | 1.69 µM (inactive) | 2.19 µM (inactive)
12 | NS(=O)(=O)c1ccc(NC2(C(=O)O)CCCC2)cc1 | > 100 µM (inactive) | > 100 µM (inactive) | > 100 µM (inactive) | > 100 µM (inactive) | > 100 µM (inactive) | > 100 µM (inactive) | > 100 µM (inactive) | > 100 µM (inactive) | > 100 µM (inactive) | > 100 µM (inactive) | > 100 µM (inactive) | > 100 µM (inactive) | > 100 µM (inactive) | > 100 µM (inactive) | > 100 µM (inactive) | > 100 µM (inactive) | > 100 µM (inactive) | > 100 µM (inactive) | > 100 µM (inactive) | > 100 µM (inactive)
13 | NC1=NS(=O)(=O)Nc2nc(-c3ccc([N+](=O)[O-])o3)[nH]c21 | 16.7 µM (inactive) | 18.3 µM (inactive) | 1.9 µM (inactive) | 17.2 µM (inactive) | 14 µM (inactive) | 20.2 µM (inactive) | 13.8 µM (inactive) | 19.6 µM (inactive) | 16 µM (inactive) | 16 µM (inactive) | 16.9 µM (inactive) | 15.9 µM (inactive) | 18.5 µM (inactive) | 16.5 µM (inactive) | 16.7 µM (inactive) | 17.4 µM (inactive) | 4.58 µM (inactive) | 76.6 µM (inactive) | 15.6 µM (inactive) | 3.6 µM (inactive)
14 | Cc1c(N)nc(C(CC(N)=O)NCC(N)C(N)=O)nc1C(=O)NC(C(=O)NC(C)C(O)C(C)C(=O)NC(C(=O)NCCc1nc(-c2nc(C(=O)NCCCNCCCCN)cs2)cs1)C(C)O)C(OC1OC(CO)C(O)C(O)C1OC1OC(CO)C(O)C(OC(N)=O)C1O)c1c[nH]cn1 (stereo not given) | 2.07 µM (inactive) | 2.43 µM (inactive) | > 10 µM (inactive) | > 10 µM (inactive) | 0.0724 µM (active) | 0.143 µM (active) | > 10 µM (inactive) | 1.79 µM (inactive) | > 10 µM (inactive) | 0.202 µM (active) | 0.00622 µM (active) | 0.461 µM (active) | 0.321 µM (active) | > 10 µM (inactive) | > 10 µM (inactive) | 2.1 µM (inactive) | 1.29 µM (inactive) | > 10 µM (inactive) | 4.01 µM (inactive) | > 10 µM (inactive)
